Values joined by “and” are separate entries in the source; they are usually repeats but may differ in a detail not shown here. Equal values may be shown once. Toxic doses and inconclusive results are not listed. Rule for the calls: active = survival T/C of 150% or more; inactive = T/C below 125% in these data.
System: P388 leukemia ip, CD2F1 mice, survival T/C
Test: NCI In Vivo Anticancer Drug Screen. Data for tumor model P388 Leukemia (intraperitoneal) in CD2F1 (CDF1) mice
Conditions: endpoint: median survival time, higher = longer survival
In short: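 Mice carrying the transplanted tumor received test compound or vehicle. Survival was recorded in each group, and the value is the treated-group measurement divided by that of the vehicle-treated control group.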

[1] = dose: 50.0 mg/kg/injection, schedule: Q01DX009 (ip), vehicle: saline
[2] = dose: 100.0 mg/kg/injection, schedule: Q01DX009 (ip), vehicle: saline
[3] = dose: 200.0 mg/kg/injection, schedule: Q01DX009 (ip), vehicle: saline
[4] = dose: 50.0 mg/kg/injection, schedule: Q01DX005 (ip), vehicle: Klucel (hydroxypropylcellulose) (HPC)
[5] = dose: 100.0 mg/kg/injection, schedule: Q01DX005 (ip), vehicle: Klucel (hydroxypropylcellulose) (HPC)
[6] = dose: 200.0 mg/kg/injection, schedule: Q01DX005 (ip), vehicle: Klucel (hydroxypropylcellulose) (HPC)
[7] = dose: 12.5 mg/kg/injection, schedule: Q01DX005 (ip), vehicle: Klucel (hydroxypropylcellulose) (HPC)
[8] = dose: 25.0 mg/kg/injection, schedule: Q01DX005 (ip), vehicle: Klucel (hydroxypropylcellulose) (HPC)
[9] = dose: 60.0 mg/kg/injection, schedule: Q01DX005 (ip), vehicle: Klucel (hydroxypropylcellulose) (HPC)
[10] = dose: 120.0 mg/kg/injection, schedule: Q01DX005 (ip), vehicle: Klucel (hydroxypropylcellulose) (HPC)
[11] = dose: 240.0 mg/kg/injection, schedule: Q01DX005 (ip), vehicle: Klucel (hydroxypropylcellulose) (HPC)
[12] = dose: 200.0 mg/kg/injection, schedule: Q01DX005 (ip), vehicle: saline with Tween-80

Measured: T/C

Clc1ccc(N=Cc2ccc(C=Nc3ccc(Cl)cc3Cl)cc2)c(Cl)c1
inactive: dose: 12.5 mg/kg/injection, schedule: Q01DX009 (ip), vehicle: saline 94 % of control | dose: 25.0 mg/kg/injection, schedule: Q01DX009 (ip), vehicle: saline 94 % of control | [1] 100 % of control and 105 % of control | [2] 88 % of control | [3] 92 % of control

O=C(CBr)c1cc2c(cc1Br)OCO2
inactive: dose: 12.5 mg/kg/injection, schedule: Q01DX001 (ip), vehicle: Klucel (hydroxypropylcellulose) (HPC) 102 % of control | dose: 25.0 mg/kg/injection, schedule: Q01DX001 (ip), vehicle: Klucel (hydroxypropylcellulose) (HPC) 104 % of control | dose: 50.0 mg/kg/injection, schedule: Q01DX001 (ip), vehicle: Klucel (hydroxypropylcellulose) (HPC) 103 % of control

COSc1ccc(C)cc1
inactive: dose: 100.0 mg/kg/injection, schedule: Q04DX003 (ip), vehicle: saline 108 % of control | dose: 200.0 mg/kg/injection, schedule: Q04DX003 (ip), vehicle: saline 100 % of control

COc1ccc(-c2oc3cc(OC)c(OC)c(OC)c3c(=O)c2O)cc1O
inactive: dose: 25.0 mg/kg/injection, schedule: Q04DX003 (ip), vehicle: saline with Tween-80 87 % of control | dose: 50.0 mg/kg/injection, schedule: Q04DX003 (ip), vehicle: saline with Tween-80 105 % of control | dose: 100.0 mg/kg/injection, schedule: Q04DX003 (ip), vehicle: saline with Tween-80 97 % of control | dose: 200.0 mg/kg/injection, schedule: Q04DX003 (ip), vehicle: saline with Tween-80 99 % of control

COc1cc2c(cc1OC)CC(=O)OC2
inactive: [4] 105 % of control | [5] 102 % of control | [6] 103 % of control

S=c1s/c(=C\c2ccccc2)c2nc3ccccc3n12
inactive: [1] 90 % of control | [2] 88 % of control

C=C([Se]c1ccccc1)C(C)(C)C
inactive: dose: 50.0 mg/kg/injection, schedule: Q01DX009 (ip), vehicle: saline with Tween-80 114 % of control | dose: 100.0 mg/kg/injection, schedule: Q01DX009 (ip), vehicle: saline with Tween-80 119 % of control

Nc1nc(C[P+](c2ccccc2)(c2ccccc2)c2ccccc2)c(CCCCc2ccccc2)c(=O)[nH]1
inactive: [7] 101 % of control | [8] 101 % of control | [4] 98 % of control and 99 % of control

CCC1OC2(C)C(O)C(/C=C/C=C/C=C/c3oc(=O)cc(OC)c3C)OC1(C)C2OC(C)=O (stereo not drawn)
inactive: dose: 0.5 mg/kg/injection, schedule: Q01DX009 (ip), vehicle: Klucel (hydroxypropylcellulose) (HPC) 109 % of control | dose: 1.0 mg/kg/injection, schedule: Q01DX009 (ip), vehicle: Klucel (hydroxypropylcellulose) (HPC) 105 % of control | dose: 2.0 mg/kg/injection, schedule: Q01DX009 (ip), vehicle: Klucel (hydroxypropylcellulose) (HPC) 100 % of control

CC(C)(C)n1nc(C2CC2)c(Br)c1NC(=O)c1ccccc1
inactive: dose: 30.0 mg/kg/injection, schedule: Q01DX005 (ip), vehicle: Klucel (hydroxypropylcellulose) (HPC) 107 % of control | [9] 109 % of control | [10] 107 % of control | [11] 98 % of control

CC(=O)O/N=C(C)/C(C)=N/Nc1ccccc1
inactive: dose: 50.0 mg/kg/injection, schedule: Q01DX005 (ip), vehicle: saline with Tween-80 93 % of control | dose: 100.0 mg/kg/injection, schedule: Q01DX005 (ip), vehicle: saline with Tween-80 89 % of control | [12] 87 % of control

CC(=O)OC/C=C(C)/C=C/C=C(C)/C=C/C1=C(C)CCCC1(C)C
inactive: [12] 95 % of control | dose: 400.0 mg/kg/injection, schedule: Q01DX005 (ip), vehicle: saline with Tween-80 97 % of control | dose: 800.0 mg/kg/injection, schedule: Q01DX005 (ip), vehicle: saline with Tween-80 97 % of control | dose: 1600.0 mg/kg/injection, schedule: Q01DX005 (ip), vehicle: saline with Tween-80 101 % of control

NC(=S)N/N=C/c1[nH]c2cc(Br)c(Br)cc2c1Br
inactive: dose: 100.0 mg/kg/injection, schedule: Q01DX001 (ip), vehicle: saline with Tween-80 91 % of control | dose: 200.0 mg/kg/injection, schedule: Q01DX001 (ip), vehicle: saline with Tween-80 91 % of control | dose: 400.0 mg/kg/injection, schedule: Q01DX001 (ip), vehicle: saline with Tween-80 98 % of control

CNS(=O)(=O)c1c([O-])on[n+]1-c1ccccc1
inactive: [9] 99 % of control | [10] 104 % of control | [11] 86 % of control

Fc1ccc(CSC(=S)Nc2cccc(F)c2)cc1
inactive: dose: 50.0 mg/kg/injection, schedule: Q01DX009 (ip), vehicle: suspension in saline 90 % of control | dose: 100.0 mg/kg/injection, schedule: Q01DX009 (ip), vehicle: suspension in saline 103 % of control | dose: 200.0 mg/kg/injection, schedule: Q01DX009 (ip), vehicle: suspension in saline 107 % of control

O=S(=O)(O)CN1CCN(CCN(CS(=O)(=O)O)CS(=O)(=O)O)CC1
inactive: [4] 100 % of control | [5] 100 % of control | [6] 96 % of control

c1ccc2c(c1)Nc1ccccc1O2
inactive: [8] 98 % of control | [4] 91 % of control | [5] 100 % of control | [6] 99 % of control

CC1(C)OC(CP(=O)(c2ccccc2)c2ccccc2)C(CP(=O)(c2ccccc2)c2ccccc2)O1 (stereo not drawn)
inactive: [4] 97 % of control | [5] 97 % of control | [6] 94 % of control

CN1CCC(C(c2ccccc2)c2ccccc2)C1 (stereo not drawn)
inactive: dose: 12.5 mg/kg/injection, schedule: Q01DX009 (ip), vehicle: Klucel (hydroxypropylcellulose) (HPC) 100 % of control | dose: 25.0 mg/kg/injection, schedule: Q01DX009 (ip), vehicle: Klucel (hydroxypropylcellulose) (HPC) 102 % of control | dose: 50.0 mg/kg/injection, schedule: Q01DX009 (ip), vehicle: Klucel (hydroxypropylcellulose) (HPC) 105 % of control

CCN(CC)C1=C(C)C2C(C)(C)N=NC12C(=O)OC (stereo not drawn)
inactive: dose: 50.0 mg/kg/injection, schedule: Q01DX005 (ip), vehicle: saline 98 % of control | dose: 100.0 mg/kg/injection, schedule: Q01DX005 (ip), vehicle: saline 102 % of control | dose: 200.0 mg/kg/injection, schedule: Q01DX005 (ip), vehicle: saline 116 % of control

FC(F)(F)c1ccc2c(N/N=C/c3ccc(N(CCCl)CCCl)cc3)ccnc2c1
inactive: dose: 100.0 mg/kg/injection, schedule: Q04DX003 (ip), vehicle: Klucel (hydroxypropylcellulose) (HPC) 111 % of control | dose: 200.0 mg/kg/injection, schedule: Q04DX003 (ip), vehicle: Klucel (hydroxypropylcellulose) (HPC) 99 % of control | dose: 400.0 mg/kg/injection, schedule: Q04DX003 (ip), vehicle: Klucel (hydroxypropylcellulose) (HPC) 90 % of control

Nc1nc(N)c2nc3c(ccc4ccccc43)nc2n1
inactive: dose: 60.0 mg/kg/injection, schedule: Q01DX005 (ip), vehicle: saline with Tween-80 94 % of control | dose: 120.0 mg/kg/injection, schedule: Q01DX005 (ip), vehicle: saline with Tween-80 96 % of control | dose: 240.0 mg/kg/injection, schedule: Q01DX005 (ip), vehicle: saline with Tween-80 104 % of control

CNc1ccc(N=Nc2ccncc2C)cc1C
inactive: dose: 6.25 mg/kg/injection, schedule: Q01DX009 (ip), vehicle: DMSO 89 % of control | dose: 12.5 mg/kg/injection, schedule: Q01DX009 (ip), vehicle: DMSO 88 % of control | dose: 25.0 mg/kg/injection, schedule: Q01DX009 (ip), vehicle: DMSO 87 % of control

COC(=N)N(C)/N=C/c1ccccc1
inactive: dose: 100.0 mg/kg/injection, schedule: Q01DX001 (ip), vehicle: Klucel (hydroxypropylcellulose) (HPC) 114 % of control | dose: 200.0 mg/kg/injection, schedule: Q01DX001 (ip), vehicle: Klucel (hydroxypropylcellulose) (HPC) 115 % of control

C1CN(/N=N/N2CCC2)C1
inactive: dose: 6.25 mg/kg/injection, schedule: Q01DX005 (ip), vehicle: Klucel (hydroxypropylcellulose) (HPC) 98 % of control | [7] 100 % of control | [8] 102 % of control

CCN1/C(=C/C=C/C=C/c2oc3ccccc3[n+]2CC)Oc2ccccc21
inactive: dose: 0.78 mg/kg/injection, schedule: Q01DX009 (ip), vehicle: saline 104 % of control | dose: 1.56 mg/kg/injection, schedule: Q01DX009 (ip), vehicle: saline 104 % of control | dose: 3.12 mg/kg/injection, schedule: Q01DX009 (ip), vehicle: saline 110 % of control

c1csc(C[N+]23CN4CN(CN(C4)C2)C3)c1
inactive: dose: 130.0 mg/kg/injection, schedule: Q01DX009 (ip), vehicle: saline 109 % of control | [3] 118 % of control | dose: 300.0 mg/kg/injection, schedule: Q01DX009 (ip), vehicle: saline 123 % of control

— PubChem BioAssay AID330 (DTP/NCI, 2004)
